Reference: patent US20250302798A1, “STING INHIBITORS AND USE THEREOF” (CARMEL HAIFA UNIVERSITY ECONOMIC CORPORATION LTD., priority 2022, published 2025)
“Also recorded” adds a separate entry of the source.

Assays:
liver fibrosis = experiment: CCl4 mouse liver fibrosis model, liver Western blot; format: in vivo, C57BL/6 mice; settings: CCl4 mice, 50 μM compound
Protocol: FIGS. 7A-7E include an image and graphs showing that compound 2.1 facilitates anti-fibrotic responses during the resolution of liver fibrosis. Mice were injected I.P. with the fibrosis-inducing agent CCl4 twice a week. After 28 days the mice were injected with vehicle (DMSO 0.4%), or 50 μM compound 2.1 ([…]). After 2 additional days, livers were collected and analyzed by western blot (7A) for their expression of collagen 1 and the M2 marker arginase 1, as well as β-actin (loading control). Alternatively, livers were analyzed for their mRNA expression of the IFN-responsive genes Ifitml (7B) and Ifitm3 (7C), or the anti-fibrotic protein Rgs2 (7D). Liver interstitial fluids were evaluated for the anti-fibrotic cytokine IL-10 (7E) levels. Results are representative from 4 (A) or mean±SEM of 8 mice (7B-7E). One-way ANOVA, and Tukey HSD test ** P≤0.01, **** P≤0.0001.
FIGS. 9A-9E include an image of Western blot analysis and vertical bar graphs showing that compound 2.1 reduces production of fibrosis-related factors. (9A) Western blot analysis showing that treatment with compound 2.1 (c2.1) in a liver fibrosis model results in: reduced production of Collagen 1 (Col-1), and of Arginase 1, and increased production of IFN-β. (9B-9E) Vertical bar graphs showing densitometric analysis of (9A) for Col-1 (9B), Arginase-1 (9C), IFN-β (9D), and alpha smooth muscle actin (αSMA; 9E). (9B-9E) results are mean±SEM. One-way ANOVA, and Tukey HSD test * P≤0.05, ** P≤0.01.
Male C57BL/6 mice were randomly assigned to experimental groups at approximately eight weeks old. Mice were injected I.P. with CCl4 (1 ml/kg) three times a week for six weeks with 0.2 ml of a 10 percent CCl4 in corn oil. Forty-eight hours before sacrifice, the vehicle group was injected I.P. with CCL4, while the treatment group was injected with CCl4 and 50 μM of compound 2.1. Then the liver was collected in a RIPA buffer for Western blot analysis.
Protein extracts of liver tissue were separated by sodium dodecyl sulfate polyacrylamide gel electrophoresis (SDS-PAGE), transferred to PVDF membranes (Bio-Rad Laboratories, Inc.), blocked with 5% skimmed milk powder, and immunoblotted with antibodies targeting: IFN-β, arginase 1, collagen 1, or β-actin. Then, the membranes were washed, incubated with the appropriate horseradish peroxidase (HRP)-conjugated secondary antibody, and developed using WesternBright™ ECL (Advansta Inc). Band density was quantified with FIJI ImageJ software.

STING-IFN-β axis = experiment: Zymosan A peritonitis in vivo, macrophage cytokines and STING pathway Western blotting; design: species or system mice; settings: 50 μM compound, 100 μl/mouse
Protocol: FIGS. 6A-6D include graphs and an image showing that compound 2.1 activates in vivo the STING-IFN-β axis and enhances biased cytokine production by macrophages. Mice were injected with zymosan A for 66 h. Twenty-four 24 post peritonitis initiation (PPI) the mice were injected with DMSO (0.4%), 4 mg/kg DMXAA or 50 μM compound 2.1 (100 μl/mouse). Macrophages were collected from the spleen (6A-6C), or peritoneum (6D) and incubated for 24 h with LPS (1 μg/ml) or vehicle (6A-6C) or lysed and analyzed by Western blotting immediately for the STING pathway (6D). Culture supernatants from incubated macrophages were analyzed by ELISA for the secretion of TNFα (6A), IL-10 (6B), and IL-6 (6C). Results are mean±SEM of 3 experiments (6A-6C) or representative blots. One-way ANOVA, and Tukey HSD test * P≤0.05, ** P≤0.01.

c1ccc(CSc2nnc(CCCCCCCCc3nnc(SCc4ccccc4)o3)o2)cc1 [Compound 2.1, 2-(benzylsulfanyl)-5-{8-[5-(benzylsulfanyl)-1,3,4-oxadiazol-2-yl]octyl}-1,3,4-oxadiazole]
Production of fibrosis-related factors (liver fibrosis): reduces
Production of Arginase 1 in liver (liver fibrosis; Western blot): reduction; also recorded: reduced
Production of Collagen 1 in liver (liver fibrosis; Western blot): reduction; also recorded: reduced
Production of IFN-β in liver (liver fibrosis; Western blot): elevated production; also recorded: increased
Anti-fibrotic responses during the resolution of liver fibrosis (liver fibrosis; livers after 2 days): facilitates
STING-IFN-β axis in vivo (STING-IFN-β axis; 24 h post peritonitis initiation, peritoneal macrophages): activates
Biased cytokine production by macrophages (TNFα, IL-10, IL-6) (STING-IFN-β axis; spleen macrophages ex vivo ± LPS 1 μg/ml 24 h): enhances
